Source: patent US20230123334A1, “AMINO LIPID COMPOUND, PREPARATION METHOD THEREFOR, AND APPLICATION THEREOF” (SHENZHEN SHENXIN BIOTECHNOLOGY CO., LTD., priority 2020, published 2023)

Legend:
[1] = system: Hela cells; assay: Transfection of Hela cell line, DNA vectors; assay type: cell-based; details: 75 ng plasmid DNA, GFP cells / total cells
Procedure: 1. The compound (0.01 mmol) prepared in Example 1 was dissolved in 1 mL of anhydrous ethanol. After ultrasonically dissolved, 10 μL of the resultant amino lipid solution in ethanol was taken and mixed with 5 μL of DOPE solution in ethanol (0.01 m), and then to the obtained mixture was added 35 μL of 0.2M sodium acetate buffer (pH 5.6), and 50 μL of liposome solution was prepared by vortex at a constant rotating speed for 30 s. 4 μL was taken from the 50 μL liposome solution and added to 46 μL of 0.02M sodium acetate buffer (pH 5.6), and the final liposome solution was formed by vortex at a constant rotating speed for 30 s. 5 μL was taken from the final liposome solution and mixed with 75 ng plasmid DNA (psin-EGFP-IRES-Puro, Clontech) dissolved in 5 μL of 0.02 M sodium acetate buffer, and was allowed to stay at room temperature for 30 min to form a lipid/DNA transfection complex.
2. 10 μL of the lipid/DNA transfection complex was incubated at room temperature for 30 min, followed by addition of 90 μL of fresh resuspended cells (3-5×10^4 cells) and mixing with a pipette. 100 μL of cells+lipid/DNA complex was transferred to separate wells of a 96-well culture plate immediately, and placed in an incubator containing 5% CO2 at 37° C.
3. Hoechst33258 (Invitrogen) was added at a final concentration of 0.2 μg/mL to the cells 20 to 24 hours after initial cell transfection, and cultured in darkness at 37° C. for 15 min. Afterwards, the cells were washed once with a PBS solution, and then added with medium for culture for 20 to 24 h.
4. The cells were placed in a high-throughput confocal microscope (Molecular Devices ImageXpress), and four visual fields of the image of the cells were captured for each well, and images at three laser wavelengths were captured for each sample: bright field images of cells (FIG. 2(a) and FIG. 2(b)), Hoechst-staining images showing total nuclei (FIG. 2(c) and FIG. 2(d)) and GFP images showing success in transfection with the plasmid DNA and the expression of GFP (FIG. 2(e) and FIG. 2(f)). MetaXpress software was used to separately count the cells in the Hoechst-staining images and GFP images, and then the number of cells expressing GFP was divided by the total number of nuclei to give the absolute cell transfection efficiency. The absolute transfection efficiency was calculated as follows: […]
(§1) Cell line: Hela cells (ATCC 35241)
(§2) Medium: DMEM supplemented with 10% fetal bovine serum (Invitrogen)
(§3) Screening: cell transfection on 96-well plates
(§4) Detection (readout): percentage of the number of GFP fluorescent cells relative to the total number of cells (the total number of cells was determined using nucleus dye Hoechst). Lipofectamine2000 (Invitrogen) was used as the positive control, according to the manufacturer's instructions.
Method: the experimental method was basically the same with Example 4.

[2] = system: Hela cells; assay: Transfection of Hela cell line, mRNA vectors; assay type: cell-based; details: 50 ng EGFP mRNA per well
Procedure: as §1, §2, §3
as §4, with “Hoechst). A commercially available liposome transfection reagent” for “Hoechst).”, “control group,” for “control,”
Method: the experimental method was basically the same with Example 4, and the mass of EGFP mRNA for transfection was 50 ng per well.

| SMILES | Absolute DNA transfection efficiency in Hela cells [1] [%] | Absolute mRNA transfection efficiency in Hela cells [2] [%] |
| --- | --- | --- |
| CCCCCCCCCCCSc1nc(NCCN2CCOCC2)nc(SCCCCCCC)n1 [Compound S7S11D2] | 13.6 | 13.6 |
| CCCCCCCCCCCCSc1nc(NCCN(C)C)nc(SCCCCCCC)n1 [Compound S7S12D1] | 4.2 | 4.1 |
| CCCCCCCCCCCCCNc1nc(NCCN2CCCCC2)nc(SCCCCCCCC)n1 [Compound S8N13D4] | 1.8 | 1.8 |
| CCCCCCCCCCCCNc1nc(NCCN(C)C)nc(SCCCCCCCC)n1 [Compound S8N12D1] | 11.5 | 11.5 |
| CCCCCCCCCCCNc1nc(NCCN2CCOCC2)nc(SCCCCCCCC)n1 [Compound S8N11D2] | 12.7 | 12.7 |
| CCCCCCCCCCCSc1nc(NCCCCCCCC)nc(NCCN(C)C)n1 [Compound S11N8D1] | 9.9 | 9.9 |
| CCCCCCCCCCCSc1nc(NCCCCCCC)nc(NCCN2CCCCC2)n1 [Compound S11N7D4] | 2.3 | 2.3 |
| CCCCCCCCCCCSc1nc(NCCCCCCCC)nc(NCCN2CCOCC2)n1 [Compound S11N8D2] | 9.3 | 9.3 |
| CCCCCCCCCCCNc1nc(NCCN(C)C)nc(SCCCCCCCCC)n1 [Compound S9N11D1] | 17.7 | 17.7 |
| CCCCCCCCCCCSc1nc(NCCCCCCCCC)nc(NCCN(CC)CC)n1 [Compound S11N9D7] | 0.9 | 0.9 |
| CCCCCCCCCNc1nc(NCCN(C)C)nc(SCCCCCCCCC)n1 [Compound S9N9D1] | 17.7 | 17.7 |
| CCCCCCCCCCCSc1nc(NCCCCCCCCC)nc(NCCN2CCOCC2)n1 [Compound S11N9D2] | 6.8 | 6.8 |
| CCCCCCCCCCCCSc1nc(NCCN(CC)CC)nc(SCCCCCCCC)n1 [Compound S8S12D7] | 4.6 | 4.6 |
| CCCCCCCCCCCCSc1nc(NCCN2CCCCC2)nc(SCCCCCCC)n1 [Compound S7S12D4] | 4.7 | 4.7 |
| CCCCCCCCCCCCNc1nc(NCCN(C)C)nc(SCCCCCCCCC)n1 [Compound S9N12D1] | 19.7 | 19.6 |
| CCCCCCCCCNc1nc(NCCN2CCOCC2)nc(SCCCCCCCCC)n1 [Compound S9N9D2] | 12.0 | 12.0 |
| CCCCCCCCCCCCCNc1nc(NCCN(C)C)nc(SCCCCCCCC)n1 [Compound S8N13D1] | 9.7 | 9.7 |
| CCCCCCCCCCCCSc1nc(NCCN2CCCCC2)nc(SCCCCCCCC)n1 [Compound S8S12D4] | 5.4 | 5.4 |
| CCCCCCCCCCCCSc1nc(NCCN(CC)CC)nc(SCCCCCCC)n1 [Compound S7S12D7] | 3.5 | 3.5 |
| CCCCCCCCCCCCNc1nc(NCCN2CCCCC2)nc(SCCCCCCCCC)n1 [Compound S9N12D4] | 4.1 | 4.1 |
| CCCCCCCCCCCSc1nc(NCCN2CCCCC2)nc(SCCCCCCC)n1 [Compound S7S11D4] | 7.9 | 7.9 |
| CCCCCCCCCCCNc1nc(NCCN2CCCCC2)nc(SCCCCCCCCC)n1 [Compound S9N11D4] | 4.4 | 4.4 |

| SMILES | Absolute DNA transfection efficiency in Hela cells [1] [%] | Absolute mRNA transfection efficiency in Hela cells [2] [%] |
| --- | --- | --- |
| CCCCCCCCCCCSc1nc(NCCN(C)C)nc(SCCCCCCCC)n1 [Compound S8S11D1] | 4.59 | 4.9 |
| CCCCCCCCCNc1nc(NCCN2CCCCC2)nc(SCCCCCCCCC)n1 [Compound S9N9D4] | 8.9 | 8.9 |
| CCCCCCCCCCCCNc1nc(NCCN(CC)CC)nc(SCCCCCCCCC)n1 [Compound S9N12D7] | 6.8 | 6.8 |
| CCCCCCCCCCCCSc1nc(NCCN2CCOCC2)nc(SCCCCCCCC)n1 [Compound S8S12D2] | 8.7 | 8.7 |
| CCCCCCCCCCCSc1nc(NCCN2CCOCC2)nc(SCCCCCCCC)n1 [Compound S8S11D2] | 8.9 | 8.6 |
| CCCCCCCCCCCCNc1nc(NCCN2CCCCC2)nc(SCCCCCCCC)n1 [Compound S8N12D4] | 3.81 | 3.8 |
| CCCCCCCCCCCCCNc1nc(NCCN(CC)CC)nc(SCCCCCCCC)n1 [Compound S8N13D7] | 4.5 | 4.5 |
| CCCCCCCCCCCSc1nc(NCCCCCCCC)nc(NCCN2CCCCC2)n1 [Compound S11N8D4] | 2.9 | 2.9 |
| CCCCCCCCCCCSc1nc(NCCCCCCC)nc(NCCN2CCOCC2)n1 [Compound S11N7D2] | 5.8 | 5.8 |
| CCCCCCCCCCCNc1nc(NCCN2CCOCC2)nc(SCCCCCCCCC)n1 [Compound S9N11D2] | 8.2 | 8.2 |
| CCCCCCCCCCCSc1nc(NCCCCCCC)nc(NCCN(C)C)n1 [Compound S11N7D1] | 13.9 | 13.9 |
| CCCCCCCCCCCCNc1nc(NCCN2CCOCC2)nc(SCCCCCCCCC)n1 [Compound S9N12D2] | 6.5 | 6.5 |
| CCCCCCCCCCCCSc1nc(NCCN(C)C)nc(SCCCCCCCC)n1 [Compound S8S12D1] | 5.4 | 5.4 |
| CCCCCCCCCCCNc1nc(NCCN(C)C)nc(SCCCCCCCC)n1 [Compound S8N11D1] | 21.12 | 21.2 |
| CCCCCCCCCCCCCNc1nc(NCCN2CCOCC2)nc(SCCCCCCCC)n1 [Compound S8N13D2] | 9.83 | 9.8 |
| CCCCCCCCCCCSc1nc(NCCN(CC)CC)nc(SCCCCCCCC)n1 [Compound S8S11D7] | 5.7 | 5.7 |
| CCCCCCCCCCCSc1nc(NCCCCCCCC)nc(NCCN(CC)CC)n1 [Compound S11N8D7] | 5.7 | 5.7 |
| CCCCCCCCCNc1nc(NCCN(CC)CC)nc(SCCCCCCCCC)n1 [Compound S9N9D7] | 24.8 | 24.8 |
| CCCCCCCCCCCCNc1nc(NCCN(CC)CC)nc(SCCCCCCCC)n1 [Compound S8N12D7] | 4.7 | 4.7 |
| CCCCCCCCCCCNc1nc(NCCN2CCCCC2)nc(SCCCCCCCC)n1 [Compound S8N11D4] | 7.6 | 7.6 |
| CCCCCCCCCCCSc1nc(NCCCCCCCCC)nc(NCCN2CCCCC2)n1 [Compound S11N9D4] | 0.5 | 0.5 |
